Data on three compounds can be found in patent publication US9604987B2, “Synthesis of autophagy inducing compound and the uses thereof” (Hong Kong Baptist University, priority 2012, dated 2017).

Series [1] can be described thus: Pharmacokinetic study of Cory B, CB6 and CB8 in rats (plasma, LC/MS/MS, NCA). The arrangement: species or system Male Sprague-Dawley (SD) rats. The note with it: rat, in vivo, 1 mg/kg; for AUC / Cmax / MRT / half-life: male, Sprague-Dawley. The method, then:
Male Sprague-Dawley (SD) rats (weighting ˜200 g) used in the experiment are provided by Laboratory Animal Services Center of The Chinese University of Hong Kong (Hong Kong SAR, People's Republic of China). Cory B (n=3), CB6 (n=6) and CB8 (n=6). For the jugular vein cannulation surgery, the rats are anesthetized (intramuscular injection of a mixture of 80 mg/kg ketamine and 8 mg/kg xylazine) followed by inserting a polyethylene tube (0.5 mm ID, 1 mm OD, Portex Ltd., England) into the right jugular vein. The cannulated rats are allowed to recover overnight while fasting with free access to water. For intravenous (IV) administrations, Cory B, CB6 or CB8 (200 μg/mL, dissolved in saline containing 9.2% PEG400+0.5% DMSO, w/w) is given through the jugular vein catheter at 1 mg/kg. For intranasal (IN) administration, 10 μL of Cory B, CB6 or CB8 (10 mg/mL, dissolved with 40% PEG400, 10% DMSO in H2O, w/w) is given to each nostril of rats. At pre-determined time points post-dosing (5, 10, 20, 30, 60, 120, 240 and 360 min for IV and IN administration groups), approximately 200 μL blood is collected into a heparinized centrifuge tube containing 5 μM EDTA followed by centrifugation at 3000 rpm for 5 min to obtain the plasma. To 100 μL rat plasma sample, an aliquot of 100 μL internal standard (IS) and 100 μL of acetonitrile are added. The mixture is mixed for 1 min by vortex and then centrifuged for 10 min at 13,200 rpm. 200 μL of supernatant is transferred into centrifuge tubes and mixed with 200 μL of H2O containing 4% formic acid (FA). After another round of vortex and centrifugation, 10 μL of the supernatant is subjected to LC/MS/MS for quantification of Cory B, CB6 or CB8 with an established LC/MS/MS method. Pharmacokinetic parameters from non-compartmental analysis (NCA) are calculated using WinNonLin. The pharmacokinetic parameters and profiles of each analytes are shown as below.

The next series relates to N2a cells. Put plainly: Western blot of autophagy marker LC3-II in N2a cells. The series is classed as cell-based, mouse. The conditions noted are these: for pro-autophagic activity (LC3II protein signal): various concentrations, 12 hrs. The method, then:
Native and denatured PAGE and Western blotting analysis. Samples to be run under denaturing conditions were lysed with RIPA lysis buffer (150 mM NaCl, 50 mM Tris-HCl, 0.35% sodium deoxycholate, 1 mM EDTA, 1% NP40, 1 mM PMSF, 5 μg/ml aprotinin, 5 μg/ml leupeptin). Samples for native gels were lysed with detergent-free lysis buffer (50 mM Tris/HCl pH 7.4, 175 mM NaCl, 5 mM EDTA pH 8.0, 1 mM PMSF, 5 μg/ml aprotinin, 5 μg/ml leupeptin), and sheared 5 times through a 28-gauge needle followed by 2 times of sonication for 5 seconds according to previously described protocol. For denaturing, SDS-PAGE was performed using Tris-Glycine SDS running buffer and SDS sample buffer, and for native conditions, native-PAGE was run with detergent-free Tris-Glycine running buffer (BN2007, Invitrogen) and 4× native sample buffer (BN2003, Invitrogen) on a pre-casted native PAGE gel (BN1002BOX, Invitrogen). The proteins on the gels were then transferred to PVDF membrane (RPN303F, GE Healthcare) and processed for immunoblotting. Membranes were blocked with 5% non-fat milk and probed with the appropriate primary and secondary antibodies. The desired bands were visualized using the ECL kit (32106, Pierce). The band density was quantified using the ImageJ program and normalized to that of the control group.
In order to confirm the neuronal autophagy inducing activity of Cory B (its chemical structure is shown in FIG. 1A), mouse neuroblastoma N2a, rat phenochromocytoma PC12 and human neurobastoma SH-SY5Y are treated with different concentrations of Cory B for 24 hours and cell lysates are subjected to western blotting analysis of LC3-II expression which is an autophagy-specific marker.
To confirm that enhancement of autophagy markers by Cory B is due to induction of autophagy rather than blockage of autophagosome maturation, N2a cells are treated with 25 μM Cory B or 30 μM lysosome inhibitor CQ together with Cory B for 12 hours. Cell lysates are subject to western blot analysis. Data are presented as the mean±SEM from 3 independent experiments (***p<0.001, one-way ANOVA for multiple comparison and Tukey's test as post hoc test). Both LC3-II levels and the number of GFP-LC3 puncta in the Cory B and CQ co-treatment group are much higher than in the CQ-alone treatment group (FIG. 2A-D). Meanwhile, Cory B induces GFP-LC3 puncta formation is abolished by treatment of 5 mM autophagy inhibitor 3-MA for 24 hours (FIG. 2C, D). Cells were fixed in 4% paraformaldehyde and analyzed under a confocal microscope. Data are presented as the mean±SEM of one representative experiment from three independent experiments. (***p<0.001, one-way ANOVA for multiple comparison and Tukey's test as post hoc test). […] Thus, Cory B is indeed an autophagy inducer in neuronal cells.
To compare the activities of oxindole alkaloids on autophagy induction, LC3II expression levels in N2a cells after treatment with Corynoxine B (Cory B) (FIG. 8A), Corynoxine (Cory) (FIG. 8B), Rhynchophylline (Rhy) (FIG. 8C) and Isorhynchophylline (IsoRhy) for 12 hours are examined.
In order to examine the pro-autophagic activities of the synthesized Cory B analogues, neuroblastoma 2a, a neuronal cell line, are treated with various concentrations of the analogues for 12 hrs. The cells are then harvested and lysed with RIPA buffer (150 mM NaCl, 50 mM Tris-HCl pH 7.4, 0.35% sodium deoxycholate, 1 mM EDTA, 1% NP40, 1 mM PMSF, 5 μg/ml aprotinin, 5 μg/ml leupeptin). The sample are lysed on ice with occasional vortex for 30 min, and then centrifuged at 14,000 rpm for 15 min at 4° C. The supernatant are collected and denatured at 95° C. in sample buffer for 5 min. The denatured samples are then separated on 15% SDS-PAGE gels and transferred to PVDF membrane. Membranes are then blocked with 5% non-fat milk and probed with appropriate primary and secondary antibodies. The protein signals of LC3II, marker protein of autophagy, are finally visualized with ECL kit and the protein bands density are quantified by ImageJ program. […]
A general note: Immunoblotting shows a protein as a band on a membrane.

For orientation: AUC means the area under the concentration-time curve, a measure of exposure. One may read the MRT as the average time that molecules of a dose stay in the body.

Read-outs that look alike come from different tables or passages of the source.

For the compound `CCCN1C(=O)[C@]2(CCN3C[C@@H](CC)[C@@H](/C(=C\OC)C(=O)OC)C[C@H]32)c2ccccc21` [CB6], in series [1] (inhaled or intranasal), the AUC is 0.2 µg·h/mL, the Cmax amounted to 0.244 ± 0.033 µg/mL, the MRT was 1.83 h and the half-life stood at 1.93 ± 0.133 h. The “Tmax (time to reach Cmax)” value in series [1] (inhaled or intranasal) was 5 ± 0 min. In series [1] (iv), this compound gave an AUC of 0.248 µg·h/mL, a Cmax of 0.52 ± 0.177 µg/mL, an MRT of 1.58 h and a half-life of 2 ± 0.25 h. For the same compound, the “Cmax and Area Under Curve (AUC) in comparison Cory B” value in series [1] (iv) is on record as “greater”. Further, the “pro-autophagic activity (LC3II protein signal)” value in the series on N2a cells (N2a) is on record as “novel autophagy inducer”.
In series [1] (inhaled or intranasal), `C=CCN1C(=O)[C@]2(CCN3C[C@@H](CC)[C@@H](/C(=C\OC)C(=O)OC)C[C@H]32)c2ccccc21` [CB8] had an area under the curve (AUC) of 0.124 µg·h/mL, a Cmax of 0.129 ± 0.061 µg/mL, an MRT of 1.95 h and a half-life of 1.65 ± 0.217 h. Besides, in series [1] (inhaled or intranasal), the “Tmax (time to reach Cmax)” value came to 5 ± 0 min. Further, in series [1] (iv), the AUC is 0.102 µg·h/mL, the Cmax was 0.143 ± 0.042 µg/mL, the MRT is 1.65 h and the half-life is 1.87 ± 0.433 h. For the same compound, the “Cmax and Area Under Curve (AUC) in comparison Cory B” value in series [1] (iv) was “greater”. Further, in the series on N2a cells (N2a), the “pro-autophagic activity (LC3II protein signal)” value is on record as “novel autophagy inducer”.
In the case of `CC[C@@H]1CN2CC[C@]3(C(=O)Nc4ccccc43)C2C[C@@H]1C(=COC)C(=O)OC` (stereo partly drawn) [Cory B, Corynoxine B], the AUC in series [1] (inhaled or intranasal, rats, intranasal, read-out: AUC (area under the curve) (converted)) is 0.0926 µg·h/mL; in series [1] (rats, intravenous, read-out: AUC (area under the curve) (converted)) it was 0.0636 µg·h/mL. Moreover, the Cmax in series [1] (inhaled or intranasal, rats, intranasal, read-out: Cmax (maximum plasma concentration)) is 0.145 ± 0.062 µg/mL; in series [1] (rats, intravenous, read-out: Cmax (maximum plasma concentration)), 0.066 ± 0.008 µg/mL. Also, the MRT in series [1] (inhaled or intranasal, rats, intranasal, read-out: MRT (mean residence time) (converted)) is 2.22 h; in series [1] (rats, intravenous, read-out: MRT (mean residence time) (converted)) it was 2.3 h. The half-life in series [1] (inhaled or intranasal, rats, intranasal, read-out: t1/2 (plasma half-life)) is 1.93 ± 0.233 h; in series [1] (rats, intravenous, read-out: t1/2 (plasma half-life)) it was 2.13 ± 0.367 h. Further, the “LC3-II levels and number of GFP-LC3 puncta, co-treatment with CQ versus CQ alone” value with N2a cells (25 μM Cory B + 30 μM CQ, 12 hours) is given as “much higher”. For the same compound, the LC3-II levels entry in the series with N2a cells (N2a, 0-25 μM, 24 hours) is “increases levels of LC3-II”. Besides, the “autophagy induction (LC3II expression level)” value in the series with N2a cells (N2a, oxindole alkaloids, 12 hours) was “significantly activate autophagy”.
